From patent US20250066341A1 (CHIESI FARMACEUTICI S.P.A., priority 2021, published 2025)

Each molecule was assayed against T1, human recombinant LPA1 expressed in CHO cells (Homo sapiens, UniProt Q92633) (assay: FLIPR calcium mobilization assay, LPA1 antagonism in CHO-hLPA1 cells). Conditions: inhibition of LPA EC80 Ca2+ response, 30 min pre-incubation, expressed as range of activity.
T1 construct: expressed in transfected cells; host or cells: CHO cells (CHO-hLPA1 cell line)
T1 sequence (Q92633 whole entry): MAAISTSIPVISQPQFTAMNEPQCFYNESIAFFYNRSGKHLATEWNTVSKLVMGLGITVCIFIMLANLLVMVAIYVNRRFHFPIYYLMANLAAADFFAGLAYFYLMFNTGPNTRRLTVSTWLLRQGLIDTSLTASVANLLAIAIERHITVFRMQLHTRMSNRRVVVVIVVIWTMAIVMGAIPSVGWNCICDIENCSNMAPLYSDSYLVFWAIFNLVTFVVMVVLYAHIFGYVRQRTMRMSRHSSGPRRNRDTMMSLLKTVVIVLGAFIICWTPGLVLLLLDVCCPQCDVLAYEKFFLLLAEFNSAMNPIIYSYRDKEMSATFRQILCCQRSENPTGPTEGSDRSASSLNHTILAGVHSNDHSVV
Type: cell-based
Description: The effectiveness of compounds of the present invention as LPA1 antagonist can be determined at the human recombinant LPA1 expressed in CHO cells, using a FLIPR assay in 384 well format.
CHO-hLPA1 cell lines are cultured in a humidified incubator at 5% C02 in DMEM/F-12 (1:1) MIXTURE with 2 mM Glutamax, supplemented with 10% of Foetal Bovine Serum, 1 mM Sodium Pyruvate, 11 mM Hepes and 1× Penicillin/Streptomycin. […] Serial dilutions (1:3 or 1:4, 11 points CRC) of compounds are performed in 100% DMSO at 200× the final concentration. […] The final concentration of DMSO in the assay will be 0.5% in each well. Medium is removed by aspiration and cells are then incubated with 30 μl of a loading solution containing 5 μM of the cytoplasmic Ca2+ indicator Cal-520 AM in Assay Buffer containing 2.5 mM probenecid for 30 min at 37° C. incubator (cell loading). The loaded cell plates are transferred into the FLIPR instrument and calcium responses are monitored during the on-line addition protocols. For testing of compounds, after the cell loading, 10 μl/well of 4× antagonists' solution was added onto the cells. After 30 min pre-incubation (at 37° C.), 10 μl/well of 5× concentrated LPA EC80 was added and Ca2+ mobilization responses was followed during the on-line addition protocol. Intracellular peak fluorescence values subtracted by baseline fluorescence are exported and analysed to determine IC50 values, respectively. The calcium response is expressed as percentage of the maximal inhibition of the EC80 agonist response.
The raw data (peak height expressed as relative fluorescence units) are normalized and transformed into “percent of inhibition”. Curve fitting and pIC50 (−LogIC50) estimations are carried out using a four-parameter logistic model using XLfit Software.
For `Cc1nc(-c2nnn(C)c2CNC(=O)O[C@H](C)c2ccccc2Cl)ccc1NC(=O)[C@H]1CCCC[C@@H]1C(=O)O` [Compound 42, (1S,2S)-2-((6-(5-(((((R)-1-(2-chlorophenyl)ethoxy)carbonyl)amino)methyl)-1-methyl-1H-1,2,3-triazol-4-yl)-2-methylpyridin-3-yl)carbamoyl)cyclohexane-1-carboxylic acid], the IC50 was 250 to 600 nM.
In the case of `Cc1nc(-c2nnn(C)c2CNc2nccc(C3CCCCC3)n2)ccc1NC(=O)[C@H]1CCCC[C@@H]1C(=O)O` [Compound 44, (1S,2S)-2-((6-(5-(((4-cyclohexylpyrimidin-2-yl)amino)methyl)-1-methyl-1H-1,2,3-triazol-4-yl)-2-methylpyridin-3-yl)carbamoyl)cyclohexane-1-carboxylic acid], the IC50 is reported as under 50 nM.
`Cc1nc(-c2onc(C)c2COC(=O)N(C)C2CCCC2)ccc1NC(=O)[C@H]1CCCC[C@@H]1C(=O)O` [Compound 45, (1S,2S)-2-((6-(4-(((cyclopentyl(methyl)carbamoyl)oxy)methyl)-3-methylisoxazol-5-yl)-2-methylpyridin-3-yl)carbamoyl)cyclohexane-1-carboxylic acid] was tested, and the IC50 was 50 to 250 nM.
`Cc1nc(-c2onc(C)c2Nc2cncc(C3CCCC3)n2)ccc1OC[C@H]1CCCC[C@@H]1C(=O)O` [Compound 46, (1S,2S)-2-(((6-(4-((6-cyclopentylpyrazin-2-yl)amino)-3-methylisoxazol-5-yl)-2-methylpyridin-3-yl)oxy)methyl)cyclohexane-1-carboxylic acid] was tested, and the IC50 was under 50 nM.
With `CCOc1cncc(Nc2c(C)noc2-c2ccc(OC[C@H]3CCCC[C@@H]3C(=O)O)cn2)n1` [Compound 47, (1S,2S)-2-(((6-(4-((6-ethoxypyrazin-2-yl)amino)-3-methylisoxazol-5-yl)pyridin-3-yl)oxy)methyl)cyclohexane-1-carboxylic acid] the IC50 was under 50 nM.
For `Cc1noc(-c2ccc(OC[C@H]3CCCC[C@@H]3C(=O)O)cn2)c1Nc1cncc(OC(C)C)n1` [Compound 48, (1S,2S)-2-(((6-(4-((6-isopropoxypyrazin-2-yl)amino)-3-methylisoxazol-5-yl)pyridin-3-yl)oxy)methyl)cyclohexane-1-carboxylic acid], the IC50 was under 50 nM.
Molecule `Cc1noc(-c2ccc(OC[C@H]3CCCC[C@@H]3C(=O)O)cn2)c1Nc1cncc(OCC(F)(F)F)n1` [Compound 49, (1S,2S)-2-(((6-(3-methyl-4-((6-(2,2,2-trifluoroethoxy)pyrazin-2-yl)amino)isoxazol-5-yl)pyridin-3-yl)oxy)methyl)cyclohexane-1-carboxylic acid] has an IC50 of under 50 nM.
`Cc1noc(-c2ccc(OC[C@H]3CCCC[C@@H]3C(=O)O)cn2)c1Nc1cncc(OCC(C)C)n1` [Compound 50, (1S,2S)-2-(((6-(4-((6-isobutoxypyrazin-2-yl)amino)-3-methylisoxazol-5-yl)pyridin-3-yl)oxy)methyl)cyclohexane-1-carboxylic acid] showed an IC50 of under 50 nM.
For `CCOc1cncc(Nc2c(C)noc2-c2ccc(OC[C@H]3CCCC[C@@H]3C(=O)O)c(C)n2)n1` [Compound 51, (1S,2S)-2-(((6-(4-((6-ethoxypyrazin-2-yl)amino)-3-methylisoxazol-5-yl)-2-methylpyridin-3-yl)oxy)methyl)cyclohexane-1-carboxylic acid], the IC50 was under 50 nM.
In the case of `Cc1nc(-c2onc(C)c2Nc2cncc(OC(C)C)n2)ccc1OC[C@H]1CCCC[C@@H]1C(=O)O` [Compound 52, (1S,2S)-2-(((6-(4-((6-isopropoxypyrazin-2-yl)amino)-3-methylisoxazol-5-yl)-2-methylpyridin-3-yl)oxy)methyl)cyclohexane-1-carboxylic acid], the IC50 is reported as under 50 nM.
Work on `COc1cncc(Nc2c(C)noc2-c2ccc(OC[C@H]3CCCC[C@@H]3C(=O)O)c(C)n2)n1` [Compound 53, (1S,2S)-2-(((6-(4-((6-methoxypyrazin-2-yl)amino)-3-methylisoxazol-5-yl)-2-methylpyridin-3-yl)oxy)methyl)cyclohexane-1-carboxylic acid] yielded an IC50 of 50 to 250 nM.
For `CCCc1cncc(Nc2c(C)noc2-c2ccc(OC[C@H]3CCCC[C@@H]3C(=O)O)c(C)n2)n1` [Compound 54, (1S,2S)-2-(((2-methyl-6-(3-methyl-4-((6-propylpyrazin-2-yl)amino)isoxazol-5-yl)pyridin-3-yl)oxy)methyl)cyclohexane-1-carboxylic acid], the IC50 was under 50 nM.
`Cc1nc(-c2onc(C)c2NS(=O)(=O)CCOc2ccc(F)cc2)ccc1OC[C@H]1CCCC[C@@H]1C(=O)O` [Compound 55, (1S,2S)-2-(((6-(4-((2-(4-fluorophenoxy)ethyl)sulfonamido)-3-methylisoxazol-5-yl)-2-methylpyridin-3-yl)oxy)methyl)cyclohexane-1-carboxylic acid] gave an IC50 of under 50 nM.
Work on `Cc1nc(-c2onc(C)c2NS(=O)(=O)c2ccccc2)ccc1OC[C@H]1CCCC[C@@H]1C(=O)O` [Compound 56, (1S,2S)-2-(((2-methyl-6-(3-methyl-4-(phenylsulfonamido)isoxazol-5-yl)pyridin-3-yl)oxy)methyl)cyclohexane-1-carboxylic acid] yielded an IC50 of 250 to 600 nM.
Molecule `Cc1nc(-c2onc(C)c2NS(=O)(=O)CCc2ccccc2)ccc1OC[C@H]1CCCC[C@@H]1C(=O)O` [Compound 57, (1S,2S)-2-(((2-methyl-6-(3-methyl-4-((2-phenylethyl)sulfonamido)isoxazol-5-yl)pyridin-3-yl)oxy)methyl)cyclohexane-1-carboxylic acid] has an IC50 of under 50 nM.
For `Cc1nc(-c2cnn(C)c2NC(=O)O[C@H](C)c2ccccc2Cl)ccc1OC[C@H]1CCCC[C@@H]1C(=O)O` [Compound 58, (1S,2S)-2-(((6-(5-((((R)-1-(2-chlorophenyl)ethoxy)carbonyl)amino)-1-methyl-1H-pyrazol-4-yl)-2-methylpyridin-3-yl)oxy)methyl)cyclohexane-1-carboxylic acid], the IC50 was under 50 nM.
Molecule `Cc1noc(-c2ccc(OC[C@H]3CCCC[C@@H]3C(=O)O)cc2)c1NC(=O)O[C@H](C)c1cccnc1` [Compound 59, (1S,2S)-2-((4-(3-methyl-4-((((R)-1-(pyridin-3-yl)ethoxy)carbonyl)amino)isoxazol-5-yl)phenoxy)methyl)cyclohexane-1-carboxylic acid] has an IC50 of 50 to 250 nM.
`Cc1nc(-c2cnn(C)c2CNc2nccc(-c3ccccc3)n2)ccc1OC[C@H]1CCCC[C@@H]1C(=O)O` [Compound 61, (1S,2S)-2-(((2-methyl-6-(1-methyl-5-(((4-phenylpyrimidin-2-yl)amino)methyl)-1H-pyrazol-4-yl)pyridin-3-yl)oxy)methyl)cyclohexane-1-carboxylic acid] was tested, and the IC50 was under 50 nM.
For `Cc1nc(-c2nnn(C)c2CNC(=O)OCc2ccccc2)ccc1OC[C@H]1CCCC[C@@H]1C(=O)O` [Compound 62, (1S,2S)-2-(((6-(5-((((benzyloxy)carbonyl)amino)methyl)-1-methyl-1H-1,2,3-triazol-4-yl)-2-methylpyridin-3-yl)oxy)methyl)cyclohexane-1-carboxylic acid], the IC50 was under 50 nM.
`Cc1nc(-c2nnn(C)c2CNC(=O)O[C@H](C)c2cccnc2Cl)ccc1OC[C@H]1CCCC[C@@H]1C(=O)O` [Compound 63, (1S,2S)-2-(((6-(5-(((((R)-1-(2-chloropyridin-3-yl)ethoxy)carbonyl)amino)methyl)-1-methyl-1H-1,2,3-triazol-4-yl)-2-methylpyridin-3-yl)oxy)methyl)cyclohexane-1-carboxylic acid] showed an IC50 of under 50 nM.
`Cc1nc(-c2nnn(C)c2CNC(=O)OCc2cccnc2Cl)ccc1OC[C@H]1CCCC[C@@H]1C(=O)O` [Compound 64, (1S,2S)-2-(((6-(5-(((((2-chloropyridin-3-yl)methoxy)carbonyl)amino)methyl)-1-methyl-1H-1,2,3-triazol-4-yl)-2-methylpyridin-3-yl)oxy)methyl)cyclohexane-1-carboxylic acid] gave an IC50 of 50 to 250 nM.
For `Cc1nc(-c2nnn(C)c2CNc2nccc(-c3cnccn3)n2)ccc1OC[C@H]1CCCC[C@@H]1C(=O)O` [Compound 65, (1S,2S)-2-(((2-methyl-6-(1-methyl-5-(((4-(pyrazin-2-yl)pyrimidin-2-yl)amino)methyl)-1H-1,2,3-triazol-4-yl)pyridin-3-yl)oxy)methyl)cyclohexane-1-carboxylic acid], the IC50 was under 50 nM.
`Cc1nc(-c2nnn(C)c2CNc2nccc(OC(C)C)n2)ccc1OC[C@H]1CCCC[C@@H]1C(=O)O` [Compound 66, (1S,2S)-2-(((6-(5-(((4-isopropoxypyrimidin-2-yl)amino)methyl)-1-methyl-1H-1,2,3-triazol-4-yl)-2-methylpyridin-3-yl)oxy)methyl)cyclohexane-1-carboxylic acid] was tested, and the IC50 was under 50 nM.
For `CCC[C@@H](C)OC(=O)Nc1c(-c2ccc(OC[C@H]3CCCC[C@@H]3C(=O)O)c(C)n2)nnn1C` [Compound 68, (1S,2S)-2-(((2-methyl-6-(1-methyl-5-(((((R)-pentan-2-yl)oxy)carbonyl)amino)-1H-1,2,3-triazol-4-yl)pyridin-3-yl)oxy)methyl)cyclohexane-1-carboxylic acid], the IC50 was under 50 nM.
For `Cc1nc(-c2nnn(C)c2NC(=O)O[C@H](C)c2ccccc2Cl)ccc1OC[C@H]1CCCC[C@@H]1C(=O)O` [Compound 69], the IC50 was under 50 nM.
